Measured values as given in patent publication US20230357253A1, “AGONISTS OF STIMULATOR OF INTERFERON GENES STING” (THE SCRIPPS RESEARCH INSTITUTE, priority 2020, published 2023).

Test system: THP-1 Lucia ISG cells
Assay: ISRE-luciferase assay (ISG-LUC activation)
Type: cell-based
Details: Homo sapiens, THP1-Lucia ISG, 24 hours, luciferase reporter
Method: ISRE-luciferase assay. THP-1 Lucia ISG cells were resuspended in low-serum growth media (2% FBS) at a density of 5×10^5 cells/ml and treated with test article or vehicle (DMSO). 50 μL of cells were seeded into each well of a 384-well white greiner plates and incubated for 24 hours. To evaluate expression of the luciferase reporter, 30 μl of Quanti-luc (Invivogen) detection reagent was added to each well and luminescence was read using an Envision plate reader (Perkin Elmer) set with an integration time of 0.1 seconds. For each cell type, luminescence signals for test article samples were normalized to vehicle-treated samples and reported as relative light units (RLU).

SMILES | EC50 [nM]
O=C(Nc1cc(CCCc2cc(NC(=O)c3ccc(-n4ccnc4)nn3)c(C(=O)O)cc2F)c(F)cc1C(=O)O)c1ccc(-n2ccnc2)nn1 [Compound 3, 4,4′-(propane-1,3-diyl)bis(2-(6-(1H-imidazol-1-yl)pyridazine-3-carbox-amido)-5-fluorobenzoic acid)] | 50 to 500
O=C(Nc1cc(CCOc2cc(NC(=O)c3ccc(-c4cn[nH]c4)nn3)c(C(=O)O)cc2F)c(F)cc1C(=O)O)c1ccc(-c2cn[nH]c2)nn1 [Compound 4, 2-(6-(1H-pyrazol-4-yl)pyridazine-3-carboxamido)-4-(5-(6-(1H-pyrazol-4-yl)pyridazine-3-carboxamido)-4-carboxy-2-fluorophenethoxy)-5-fluorobenzoic acid] | 50 to 500
CC(CCOc1cc(NC(=O)c2ccc(-n3ccnc3)nn2)c(C(=O)O)cc1F)Oc1cc(NC(=O)c2ccc(-n3ccnc3)nn2)c(C(=O)O)cc1F (stereo not drawn) [Compound 5, 4,4′-(butane-1,3-diylbis(oxy))bis(2-(6-(1H-imidazol-1-yl)pyridazine-3-carboxamido)-5-fluorobenzoic acid)] | 50 to 500
COc1cc(C(=O)O)c(NC(=O)c2ccc(-n3ccnc3)nn2)cc1OCCc1cc(C(=O)O)c(NC(=O)c2ccc3nnnn3n2)cc1Cl [Compound 6, 2-(6-(1H-imidazol-1-yl)pyridazine-3-carboxamido)-4-(5-carboxy-2-chloro-4-(tetrazolo[1,5-b]pyridazine-6-carboxamido)phenethoxy)-5-methoxybenzoic acid] | 50 to 500
O=c1oc(-c2ccc(-n3ccnc3)nn2)nc2c(F)c(OCCCCOc3c(F)cc4c(=O)oc(-c5ccc(-n6ccnc6)nn5)nc4c3F)c(F)cc12 [Compound 9, 7,7′-(butane-1,4-diylbis(oxy))bis(2-(6-(1H-imidazol-1-yl)pyridazin-3-yl)-6,8-difluoro-4H-benzo[d][1,3]oxazin-4-one)] | 500 to 5000
O=C(Nc1cc(OCCCOc2cc(C(=O)O)c(NC(=O)c3ccc(-n4ccnc4)nn3)cc2F)c(F)cc1C(=O)O)c1ccc(-n2ccnc2)nn1 [Compound 10, 2-(6-(1H-imidazol-1-yl)pyridazine-3-carboxamido)-5-(3-(5-(6-(1H-imidazol-1-yl)pyridazine-3-carboxamido)-4-carboxy-2-fluorophenoxy)propoxy)-4-fluoro-benzoic acid] | 50 to 500
O=C(Nc1cc(CCCc2ccc(NC(=O)c3ccc4nnnn4n3)c(C(=O)O)c2)ccc1C(=O)O)c1ccc2nnnn2n1 [Compound 13] | 500 to 5000
O=C(Nc1cc(CCCc2ccc(C(=O)O)c(NC(=O)c3ccc4nnnn4n3)c2)ccc1C(=O)O)c1ccc2nnnn2n1 [Compound 14] | 500 to 5000
O=C(Nc1cc(OCCCCOc2cc(NC(=O)c3ccc(-n4ccnc4)nn3)c(C(=O)O)cc2F)ccc1C(=O)O)c1ccc(-n2ccnc2)nn1 [Compound 19] | 500 to 5000
COC(=O)c1cc(Cl)c(OCCCCOc2cc(NC(=O)c3ccc(-n4ccnc4)nn3)c(C(=O)OC)cc2Cl)cc1NC(=O)c1ccc(-n2ccnc2)nn1 [Compound 23] | < 50
O=C(Nc1cc(OCCOc2cc(C(=O)O)c(NC(=O)c3ccc4nnnn4n3)cc2F)ccc1C(=O)O)c1ccc2nnnn2n1 [Compound 26] | > 5000
O=C(Nc1cc(OCCCOc2cc(C(=O)O)c(NC(=O)c3ccc4nnnn4n3)cc2F)c(F)cc1C(=O)O)c1ccc2nnnn2n1 [Compound 33] | > 5000
COC(=O)c1cc(F)c(OCCCCOc2cc(NC(=O)c3ccc(-n4ccnc4)nn3)c(C(=O)OC)cc2F)cc1NC(=O)c1ccc(-n2ccnc2)nn1 [Compound 34] | > 5000
O=C(Nc1cc(OCCCCOc2ccc(C(=O)O)c(NC(=O)c3ccc(-n4ccnc4)nn3)c2)ccc1C(=O)O)c1ccc(O)nn1 [Compound 35] | > 5000
COC(=O)c1cc(F)c(OCCCCOc2c(F)cc(C(=O)OC)c(NC(=O)c3ccc(-n4ccnc4)nn3)c2F)c(F)c1NC(=O)c1ccc(-n2ccnc2)nn1 [Compound 36] | < 50
O=C(Nc1c(C(=O)O)cc(F)c(OCCCCOc2c(F)cc(C(=O)O)c(NC(=O)c3ccc(-n4ccnc4)nn3)c2F)c1F)c1ccc(-n2ccnc2)nn1 [Compound 38] | 50 to 500
O=C(Nc1c(C(=O)O)cc(F)c(OCCCCOc2c(F)cc(C(=O)O)c(NC(=O)c3ccc(-n4ccnc4)nn3)c2F)c1F)c1ccc(O)nn1 [Compound 39] | > 5000
O=c1oc(-c2ccc(-n3ccnc3)nn2)nc2cc(OCCCCOc3cc4nc(-c5ccc(-n6ccnc6)nn5)oc(=O)c4cc3F)c(F)cc12 [Compound 40] | < 50
COc1cc2c(=O)oc(-c3ccc(-n4ccnc4)nn3)nc2cc1OCCCCOc1cc2nc(-c3ccc(-n4ccnc4)nn3)oc(=O)c2cc1OC [Compound 41] | < 50
O=C(Nc1cc(OCCCCOc2ccc(C(=O)O)c(NC(=O)c3ccc(-n4ccnc4)nn3)c2)ccc1C(=O)O)c1cccnn1 [Compound 44] | > 5000
O=C(Nc1cc(OCCCCOc2cnc(C(=O)O)c(NC(=O)c3ccc(-n4ccnc4)nn3)c2)cnc1C(=O)O)c1ccc(-n2ccnc2)nn1 [Compound 45] | > 5000
COC(=O)c1cc(F)c(CCCc2cc(NC(=O)c3ccc(-n4ccnc4)nn3)c(C(=O)OC)cc2F)cc1NC(=O)c1ccc(-n2ccnc2)nn1 [Compound 51] | < 50
COC(=O)c1ccc(CCCc2ccc(NC(=O)c3ccc(-n4ccnc4)nn3)c(C(=O)OC)c2)cc1NC(=O)c1ccc(-n2ccnc2)nn1 [Compound 53] | > 5000
COC(=O)c1cc(F)c(CCCc2cc(NC(=O)c3ccc(-n4ccnc4)nn3)c(C(=O)OC)cc2OC)cc1NC(=O)c1ccc(-n2ccnc2)nn1 [Compound 54] | < 50

SMILES | EC50 [nM]
COc1cc(C(=O)O)c(NC(=O)c2ccc(-n3ccnc3)nn2)cc1CCCc1ccc(C(=O)O)c(NC(=O)c2ccc(-n3ccnc3)nn2)c1 [Compound 56] | 50 to 500
COc1cc(C(=O)O)c(NC(=O)c2ccc(-n3ccnc3)nn2)cc1CCCc1cc(NC(=O)c2ccc(-n3ccnc3)nn2)c(C(=O)O)cc1F [Compound 59] | 50 to 500
O=C(Nc1cc(CCCc2ccc(C(=O)O)c(NC(=O)c3ccc4nnnn4n3)c2)ccc1C(=O)O)c1ccc(-n2ccnc2)nn1 [Compound 63] | > 5000
O=C(Nc1cc(CCCc2cc(NC(=O)c3ccc(-n4ccnc4)nn3)c(C(=O)O)cc2Cl)ccc1C(=O)O)c1ccc(-n2ccnc2)nn1 [Compound 66] | 50 to 500
O=C(Nc1cc(CCCc2cc(NC(=O)c3ccc4nnnn4n3)c(C(=O)O)cc2F)c(F)cc1C(=O)O)c1ccc(-n2ccnc2)nn1 [Compound 67] | 50 to 500
O=C(Nc1cc(CCCc2cc(NC(=O)c3ccc(-n4ccnc4)nn3)c(C(=O)O)cc2F)ccc1C(=O)O)c1ccc(-n2ccnc2)nn1 [Compound 68] | 50 to 500
O=C(Nc1cc(CCCc2cc(C(=O)O)c(NC(=O)c3ccc(-n4ccnc4)nn3)cc2F)c(F)cc1C(=O)O)c1ccc(-n2ccnc2)nn1 [Compound 70] | 500 to 5000
O=C(Nc1cc(CCCc2cc(C(=O)O)c(NC(=O)c3ccc(-n4ccnc4)nn3)cc2F)ccc1C(=O)O)c1ccc(-n2ccnc2)nn1 [Compound 78] | 50 to 500
O=C(Nc1cc(CCCc2cc(C(=O)O)c(NC(=O)c3ccc4nnnn4n3)cc2F)c(F)cc1C(=O)O)c1ccc(-n2ccnc2)nn1 [Compound 90] | 500 to 5000
O=C(Nc1cc(F)c(CCCc2cc(NC(=O)c3ccc4nnnn4n3)c(C(=O)O)cc2F)cc1C(=O)O)c1ccc(-n2ccnc2)nn1 [Compound 94] | 50 to 500
COC(=O)c1cc(Cl)c(CCCc2ccc(C(=O)OC)c(NC(=O)c3ccc4nnnn4n3)c2)cc1NC(=O)c1ccc(-n2ccnc2)nn1 [Compound 106] | < 50
COC(=O)c1cc(F)c(CCOc2cc(NC(=O)c3ccc4nnnn4n3)c(C(=O)OC)cc2F)cc1NC(=O)c1ccc(-n2ccnc2)nn1 [Compound 113] | < 50
O=C(Nc1cc(CCCOc2cc(NC(=O)c3ccc(-n4ccnc4)nn3)c(C(=O)O)cc2F)c(F)cc1C(=O)O)c1ccc(-n2ccnc2)nn1 [Compound 125] | 500 to 5000
O=C(Nc1cc(CCCOc2cc(NC(=O)c3ccc4nnnn4n3)c(C(=O)O)cc2F)c(F)cc1C(=O)O)c1ccc(-n2ccnc2)nn1 [Compound 126] | 500 to 5000
O=C(Nc1cc(CCCCc2cc(C(=O)O)c(NC(=O)c3ccc(-n4ccnc4)nn3)cc2F)c(F)cc1C(=O)O)c1ccc(-n2ccnc2)nn1 [Compound 127] | 500 to 5000
COc1cc(C(=O)O)c(NC(=O)c2ccc(-n3ccnc3)nn2)cc1OCCc1cc(C(=O)O)c(NC(=O)c2ccc(-n3ccnc3)nn2)cc1C#N [Compound 130] | 50 to 500
COC(=O)Cc1cc(F)c(CCOc2cc(NC(=O)c3ccc(-n4ccnc4)nn3)c(C(=O)OC)cc2F)cc1NC(=O)c1ccc(-n2ccnc2)nn1 [Compound 131] | 500 to 5000
O=C(Nc1cc(CSCc2cc(NC(=O)c3ccc(-n4ccnc4)nn3)c(C(=O)O)cc2F)c(F)cc1C(=O)O)c1ccc(-n2ccnc2)nn1 [Compound 132] | < 50
COc1nc(C(=O)O)c(NC(=O)c2ccc(-n3ccnc3)nn2)cc1CCCc1cc(NC(=O)c2ccc(-n3ccnc3)nn2)c(C(=O)O)cc1F [Compound 134] | 50 to 500
O=C(Nc1cc(CCOc2cc(C(=O)O)c(NC(=O)c3ccc(-n4ccnc4)nn3)cc2F)c(F)cc1C(=O)O)c1ccc(-n2ccnc2)nn1 [Compound 141] | 50 to 500
O=C(Nc1cc(OCCc2cc(C(=O)O)c(NC(=O)c3ccc(-n4ccnc4)nn3)cc2F)c(F)cc1C(=O)O)c1ccc(-n2ccnc2)nn1 [Compound 144] | 50 to 500
COC(=O)c1cc(F)c(OCCc2c(OC)cc(NC(=O)c3ccc(-n4ccnc4)nn3)c(C(=O)OC)c2F)cc1NC(=O)c1ccc(-n2ccnc2)nn1 [Compound 150] | > 5000
COC(=O)c1cc(F)c(OCCc2cc(NC(=O)c3ccc(-n4ccnc4)nn3)c(C(O)C(=O)OC)cc2F)cc1NC(=O)c1ccc(-n2ccnc2)nn1 (stereo not drawn) [Compound 152] | 500 to 5000
COC(=O)c1cc(F)c(COCc2cc(NC(=O)c3ccc(-n4ccnc4)nn3)c(C(=O)OC)cc2F)cc1NC(=O)c1ccc(-n2ccnc2)nn1 [Compound 155] | < 50
